According to US20160346255A1, “METHODS, AGENTS AND COMPOSITIONS FOR TREATMENT OF INFLAMMATORY CONDITIONS” (Betanien Hospital, priority 2014, published 2016):
Like-named read-outs stand apart in the source and are kept apart here. Non-standard residues stand in square brackets, D forms with d. Residues, ends and D or L forms follow the SMILES beside them. d(hArg(Et2)) = CCN=C(NCC)NCCCC[C@@H](N)C(=O)O; hArg(Et2) = CCN=C(NCC)NCCCC[C@H](N)C(=O)O; dPhe(4-Cl) = N[C@H](Cc1ccc(Cl)cc1)C(=O)O; d2Nal = N[C@H](Cc1ccc2ccccc2c1)C(=O)O; dCit = NC(=O)NCCC[C@@H](N)C(=O)O; d3Pal = N[C@H](Cc1cccnc1)C(=O)O

How the values were obtained:
Patient with Lupus = experiment: Lupus patient treated with degarelix (and earlier therapies); type: in vivo, human; conditions: for Reducing the pain in their extremities / Side effects: previous therapy
Description: Example of Treating a Patient with Lupus with a GnRH Antagonist
Due to their painful condition, they have been followed up by a pain clinic. They were offered a tricyclic antidepressant, amitriptyline 25 mg in March 2014 for their painful condition.
Therefore, we decided to offer […] degarelix. GnRH antagonists have shown anti-inflammatory effects and therefore we considered that degarelix, a depot GnRH antagonist, may have a therapeutic effect in lupus. 09.15.14, […] received […] loading dose of degarelix, 240 mg s.c.
They received their second dose of degarelix in October 2014, 80 mg s.c. They continue on 80 mg s.c. every two weeks.

mice = experiment: Mouse study of preventing age related inflammation with cetrorelix; type: in vivo; conditions: 0.5 mg/kg daily with or without gonadal hormone replacement
Description: An animal study is conducted with 40 fertile female mice aged approximately 6-20 months in a control group (group 1) receiving placebo, 40 age and sex matched mice receiving a drug that reduces the activity of GnRH (group 2), such as cetrorelix 0.5 mg/kg daily, and 40 age and sex matched mice receiving the same GnRH inhibitor as group 2, but with the additional replacement of gonadal hormone (oestrogen) to age adjusted pre-chosen levels. All mice are followed prospectively, and evaluated for systemic inflammation markers, atherosclerosis, osteoporosis, LDL, and age at death. The same three interventions and assessments are carried out in three groups of male mice with 40 male mice in each group, aged approximately 6-20 months, replacing the gonadal hormone testosterone to pre-chosen levels in group 3. Mice treated with a drug that reduces the activity of GnRH, such as cetrorelix 0.5 mg/kg daily with or without the replacement of gonadal hormone (preferably with) reach a higher age at death compared with mice in the placebo groups. These mice also show less atherosclerosis, osteoporosis and systemic inflammation than mice in the placebo groups.

[1] = system: patients with active longstanding RA; experiment: Double-blinded randomised study of cetrorelix in active longstanding RA (NCT00667758, AGRA); type: in vivo, human; conditions: preceding the P1NP reduction at day 10
Text: The manuscript by Kass et al., 2014 Scand. J. Rheumatol., 43 (1), 22-27, describes a short term study of a GnRH antagonist, Cetrorelix (AGRA study). This is the first human study of GnRH antagonist treatment in an inflammatory disease. […] However, some patients did show some response and the response was thought to be limited to patients with above normal levels of LH and FSH (Abstract to the 13th annual American College of Rheumatology meeting). […] However, current TNFα inhibiting therapy in rheumatoid arthritis is long term. […] There are several examples in medicine that give positive immediate effects in disease but are unsuitable for long term use, either due to lack of efficacy, safety or both.
In this double-blinded, single-site study in Norway (ClinicalTrials.gov NCT00667758), 99 patients with active longstanding RA, were randomised to predefined intention-to-treat populations using computer-generated allocation (1:1) in dynamic blocks stratified for sex. Patients were assigned to subcutaneous cetrorelix (n=48) (5 mg days 1-2, 3 mg days 3-5) or placebo (n=51). P1NP was measured on day 10. We investigated serum P1NP between groups, a predefined secondary endpoint. Detailed efficacy and safety data are presented separately.

[2] = system: patients with active longstanding RA; conditions: 5 days of treatment; Kass et al. 2014; cited from earlier work
[3] = system: Patient with Rheumatoid Arthritis; experiment: Rheumatoid arthritis patient treated with cetrorelix; type: in vivo, human; conditions: at 12 weeks
Description: (§1) • person with seropositive rheumatoid arthritis with disease duration of 10 years. • Fulfilled ACR 2010 classification criteria for rheumatoid arthritis.
• Had tried all therapies available previously without effect. • Offered experimental GnRH antagonist therapy, cetrorelix in 0.5 mg s.c. daily in October 2014, then 0.75 mg s.c. daily in December 2014.

[4] = system: Patient with Osteoarthritis; experiment: Intra-articular cetrorelix in a patient with osteoarthritis; type: in vivo, human; conditions: 1 mg injected into both knees; 2 week post injection
Description: • person with osteoarthritis of both knees diagnosed by X-ray 10 years ago. • Has had synovitis secondary to osteoarthritis in both knees for the last month, confirmed by synovitis on ultrasound. • In order to treat the secondary inflammation as a result of their knee osteoarthritis, they are offered intra-articular GnRH antagonist treatment, for example cetrorelix 1 mg injected into both knees. Subcutaneous cetrorelix for injection can be used. • Before and 2 week post injection ultrasound images are taken to show a decrease in synovitis in the knee joint.

[5] = system: systemic sclerosis patients; conditions: over 12 months; increased from 7; cited from earlier work
[6] = system: Patient with Rheumatoid Arthritis; experiment: Rheumatoid arthritis patient treated with ganirelix; type: in vivo, human; conditions: at 4 months
Description: as §1
• Had tried almost all available rheumatoid arthritis therapies available previously without effect. • Offered experimental GnRH antagonist therapy, ganirelix 0.75 mg s.c. daily (0.25 mg s.c. three times a day).
• Disease activity score (DAS) reduction from 5.5 to 2.2 (remission). • A DAS reduction of 0.6 units is defined as a clinical response to treatment (1). • […] ESR decreased from 28 mm to 19 mm, with a normalization of their CRP from 23 mg/L to 5 mg/L. This is supported by the decrease in their anti-cyclic citrullinated peptide (CCP) antibodies from 27 μ/mL to 14 μ/mL.

Patient with Tendonitis = experiment: Tendonitis patient treated with ganirelix injection; type: in vivo, human; conditions: 1.5 mg injected around the affected tendon; 2 week post injection
Description: • person diagnosed with tendonitis of the elbow with ultrasound confirming tendonitis.
• Treated with an injection of GnRH antagonist, ganirelix 1.5 mg, around the affected tendon.
• Before and 2 week post injection ultrasound images are taken to show a decrease in tendonitis of the elbow. […] Such injections may be administered over the long-term, for example every 3 months to maintain optimal effect.

[7] = system: patients with psoriasis who were taking lithium; conditions: 15 patients, after 10 weeks, cited from earlier work
[8] = system: Patient with Spondyloarthritis; experiment: Spondyloarthritis patient treated with oral relugolix; type: in vivo, human; conditions: 400 mg daily; at 12 weeks, remission; baseline 5
Description: • person with spondyloarthritis with disease duration of 5 years.
• Is offered experimental GnRH antagonist therapy, relugolix 400 mg daily for 12 weeks.
• Disease activity in ankylosing spondylitis/spondyloarthritis is measured by the BASDAI score. His BASDAI is 5 at baseline.

[9] = system: Patient with Ankylosing Spondylitis; experiment: Ankylosing spondylitis patient treated with degarelix (and earlier TNF inhibitors); type: in vivo, human; conditions: ankylosing spondylitis patient
Text: Example of Treating a Patient with Ankylosing Spondylitis with a GnRH Antagonist
Diagnosed with ankylosing spondylitis in 1984, HLAB27 positive, with repeated iridocyclitis. Used non-steroidal anti-inflammatory drugs previously. They were offered the TNFα inhibitor Golilimumab in 2010. Their disease activity score was 8.9 in October 2010 (see below for explanation of disease activity score) on initiating Golilimumab; by the June 2012 this score had reduced to 6.6, but by May 2013 the effect had worn off and their score was 7.6. May 2013, they initiated Enbrel treatment, but their disease activity increased from 7.6 to 8.3. Due to their poor response to TNFα therapy, they were offered the GnRH antagonist degarelix in September 2014.
Disease activity in ankylosing spondylitis is measured by the BASDAI (Bath Ankylosing Spondylitis Disease Activity Index (1)), which has been extensively validated in clinical trials, 2, 3 and is one of the most commonly used outcome measures in clinical trials. This is a composite index that evaluates fatigue, axial and peripheral pain, stiffness and enthesopathy. Their BASDAI was at 8.7 at baseline. In September 2014 they received their first dose of degarelix 240 mg s.c. By 2 weeks, their BASDAI had reduced to 6.8, and by 6 weeks it had reduced to 5.8. This is the lowest BASDAI score they have ever had since we first started using this method of assessment 4 years ago in 2010. Their morning stiffness lasted 4 hours at baseline, by 6 weeks their morning stiffness had reduced to 2 hours. They had their second dose of degarelix 80 mg s.c in October 2014. Lumbar flexion and maximum arm abduction were increased after 6 weeks of treatment.
Response to therapy in clinical practice is defined as improvement of 2 units or 50% on a 0-10 scale of the BASDAI, and expert opinion that the treatment should be continued. Their reduction by 6 weeks was 2.9 units, and 7.1 units with an 82% BASDAI score improvement by 9 weeks, and we shall continue treatment. A BASDAI 50% improvement is defined as a major clinical response. […] For comparison, approximately 50-60% of patients achieve a BASDAI 50 by 12 weeks on TNF inhibitors (4). Their ESR has decreased from 46 mm to 23 mm, which is their lowest ESR reading in 19 years. […] By 9 weeks of GnRH antagonist therapy, their kidney function has normalized, and fasting glucose reduced from 7.4 to 6.5 mmol/L. By 3 months, the effect on their ankylosing spondylitis remained, creatinine was at 98 μmol/L, with a glomerular filtration rate of 66 ml/min/1.73 m^2 in December 2014.

patients with IBD = conditions: week 2 after an infusion; cited from earlier work

## CN(C)CCC=C1c2ccccc2CCc2ccccc21 [amitriptyline]
Patient with Lupus; 25 mg, March 2014
  Effect on pain: no effect
Patient with Lupus; 50 mg, April 2014
  Effect on pain: no effect
Patient with Lupus; 150 mg daily
  Effect on pain: no effect

## Cn1cnc([N+](=O)[O-])c1Sc1ncnc2nc[nH]c12 [azathioprine]
Patient with Lupus
  Reducing the pain in their extremities: not effective
  Side effects: intolerable side effects such as mouth ulcers

## CC(=O)N[C@H](Cc1ccc2ccccc2c1)C(=O)N[C@H](Cc1ccc(Cl)cc1)C(=O)N[C@H](Cc1cccnc1)C(=O)N[C@@H](CO)C(=O)N[C@@H](Cc1ccc(O)cc1)C(=O)N[C@H](CCCNC(N)=O)C(=O)N[C@@H](CC(C)C)C(=O)N[C@@H](CCCNC(=N)N)C(=O)N1CCC[C@H]1C(=O)N[C@H](C)C(N)=O [cetrorelix] (Ac-[d2Nal][dPhe(4-Cl)][d3Pal]SY[dCit]LRP[dA]-NH2)
mice
  Age at death vs placebo groups: higher
  Atherosclerosis vs placebo groups: less
  Osteoporosis vs placebo groups: less
  Systemic inflammation vs placebo groups: less
[1]
  Disease activity markers and TNF-α (log pg/mL): significant reductions
[2]
  Primary end-point with regard to clinical response: did not meet the primary end-point
  TNFα: possible reduction
[3]; 0.5 then 0.75 mg s.c. daily, from 6.1
  Disease activity score (DAS): 5.5
[3]; from 41 mg/L
  CRP: 18 mg/L
[3]; from 137 kIU/L
  Rheumatoid factor: 111 kIU/L
[3]; normalized from 35 mm
  ESR: 28 mm
[4]
  Synovitis in the knee joint on ultrasound: decrease

## O=P1(N(CCCl)CCCl)NCCCO1 (stereo not shown) [cyclophosphamide]
[5]
  Digital ulcers, average number: 9 ulcers

## NCC1(CC(=O)O)CCCCC1 [gabapentin]
Patient with Lupus; 100 mg×3 up to 1200 mg×3
  Effect on pain: no effect

## CCN=C(NCC)NCCCC[C@H](NC(=O)[C@H](CC(C)C)NC(=O)[C@@H](CCCCNC(=NCC)NCC)NC(=O)[C@H](Cc1ccc(O)cc1)NC(=O)[C@H](CO)NC(=O)[C@@H](Cc1cccnc1)NC(=O)[C@@H](Cc1ccc(Cl)cc1)NC(=O)[C@@H](Cc1ccc2ccccc2c1)NC(C)=O)C(=O)N1CCC[C@H]1C(=O)N[C@H](C)C(N)=O [ganirelix] (Ac-[d2Nal][dPhe(4-Cl)][d3Pal]SY[d(hArg(Et2))]L[hArg(Et2)]P[dA]-NH2)
[6]; 0.75 mg s.c. daily, remission, from 5.5
  Disease activity score (DAS): 2.2
[6]; from 27 μ/mL
  Anti-cyclic citrullinated peptide (CCP) antibodies: 14 μ/mL
[6]; from 28 mm
  ESR: 19 mm
[6]; from 113 kIU/L
  Rheumatoid factor: 75 kIU/L
[6]; normalization from 23 mg/L
  CRP: 5 mg/L
Patient with Tendonitis
  Tendonitis of the elbow on ultrasound: decrease

## O[C@H]1[C@H](O)[C@@H](O)[C@H](O)[C@@H](O)[C@H]1O [inositol]
[7]
  Median PASI score reduction: 35%
[7]; median pretreatment PASI 4.9
  Median PASI score reduction: 1.7 points

## CN(Cc1cnc2nc(N)nc(N)c2n1)c1ccc(C(=O)N[C@@H](CCC(=O)O)C(=O)O)cc1 [methotrexate]
Patient with Lupus
  Reducing the pain in their extremities: not effective
  Side effects: intolerable side effects such as mouth ulcers

## COc1c(C)c2c(c(O)c1C/C=C(\C)CCC(=O)OCCN1CCOCC1)C(=O)OC2 [mycophenolate mofetil]
Patient with Lupus
  Reducing the pain in their extremities: not effective
  Side effects: intolerable side effects such as mouth ulcers

## CC(C)C[C@H](CN)CC(=O)O [pregabalin]
Patient with Lupus; up to 150 mg×2
  Effect on pain: no effect

## CONC(=O)Nc1ccc(-c2sc3c(c2CN(C)C)c(=O)n(-c2ccc(OC)nn2)c(=O)n3Cc2c(F)cccc2F)cc1 [relugolix]
[8]
  BASDAI: 1.2

## Enbrel
[9]; treatment initiated May 2013 at 7.6
  Disease activity score (BASDAI): 8.3

## Golilimumab: TNFα inhibitor Golilimumab
[9]; June 2012, 8.9 on initiating in October 2010
  Disease activity score (BASDAI): 6.6
[9]; May 2013, effect had worn off
  Disease activity score (BASDAI): 7.6

## infliximab: anti-TNFα monoclonal antibody
Patients with IBD
  Fecal calprotectin concentration: decreases significantly
